In PubChem BioAssay AID1963964 (Molecular Pharmacology Branch, DTP, NCI, 2024):

Test system: 997726-040-R-J2-PDC tumor spheroids, viability
Assay: Anticancer human tumor 997726-040-R-J2-PDC patient-derived squamous cell lung carcinoma cell line growth inhibition [PI3K]
Conditions: spheroids with HUVEC and MSC; for IC50: curve of first compound; for viability, T/C: stronger effect = lower value; active = viability on the fitted dose curve at most 10% of control; inactive = the rest
In short: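 Complex 3D spheroids (cancer cells + endothelial HUVEC + mesenchymal stem cells); drug pairs of targeted agent x inavolisib/alpelisib/duvelisib/copanlisib; half-log series from ~Cmax, max 10 microM if Cmax unknown; endpoint viability.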
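Note: spheroids exposed to compounds for seven days before readout.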

CC1(C)CCC(Nc2ncc(C(F)(F)F)c(-c3c[nH]c4c(P(C)(C)=O)c(C#N)ccc34)n2)CN1 (centres undefined) + CC(Nc1ncnc2nc[nH]c12)c1cc2cccc(Cl)c2c(=O)n1-c1ccccc1
< 0.0316 µM: IC50 (second compound 3.16 µM) | IC50 (second compound 10 µM)
0.0316 µM: IC50 (second compound 1 µM)
0.496 µM: IC50 (second compound 0.0316 µM)
inactive: viability, T/C (second compound 0.0316 µM, first compound 0.0316 µM) 48.9% | viability, T/C (second compound 0.0316 µM, first compound 0.1 µM) 45.7% | viability, T/C (second compound 0.0316 µM, first compound 0.316 µM) 50% | viability, T/C (second compound 0.0316 µM, first compound 1 µM) 59.5% | viability, T/C (second compound 0.0316 µM, first compound 3.16 µM) 65.9% | viability, T/C (second compound 0.0316 µM, first compound 10 µM) 29.6% | viability, T/C (second compound 0.1 µM, first compound 0.0316 µM) 53.8% | viability, T/C (second compound 0.1 µM, first compound 0.1 µM) 51.6% | viability, T/C (second compound 0.1 µM, first compound 0.316 µM) 49.3% | viability, T/C (second compound 0.1 µM, first compound 1 µM) 48.5% | viability, T/C (second compound 0.1 µM, first compound 3.16 µM) 55.5% | viability, T/C (second compound 0.1 µM, first compound 10 µM) 33% | viability, T/C (second compound 0.316 µM, first compound 0.0316 µM) 52.3% | viability, T/C (second compound 0.316 µM, first compound 0.1 µM) 47.6% | viability, T/C (second compound 0.316 µM, first compound 0.316 µM) 45.3% | viability, T/C (second compound 0.316 µM, first compound 1 µM) 53.3% | viability, T/C (second compound 0.316 µM, first compound 3.16 µM) 56% | viability, T/C (second compound 0.316 µM, first compound 10 µM) 26.5% | viability, T/C (second compound 1 µM, first compound 0.0316 µM) 49.2% | viability, T/C (second compound 1 µM, first compound 0.1 µM) 46.2% | viability, T/C (second compound 1 µM, first compound 0.316 µM) 45.2% | viability, T/C (second compound 1 µM, first compound 1 µM) 44.7% | viability, T/C (second compound 1 µM, first compound 3.16 µM) 52.2% | viability, T/C (second compound 1 µM, first compound 10 µM) 27.3% | viability, T/C (second compound 3.16 µM, first compound 0.0316 µM) 42.1% | viability, T/C (second compound 3.16 µM, first compound 0.1 µM) 40.7% | viability, T/C (second compound 3.16 µM, first compound 0.316 µM) 36% | viability, T/C (second compound 3.16 µM, first compound 1 µM) 39.3% | viability, T/C (second compound 3.16 µM, first compound 3.16 µM) 53.8% | viability, T/C (second compound 3.16 µM, first compound 10 µM) 21.7% | viability, T/C (second compound 10 µM, first compound 0.0316 µM) 32% | viability, T/C (second compound 10 µM, first compound 0.1 µM) 29.2% | viability, T/C (second compound 10 µM, first compound 0.316 µM) 31.5% | viability, T/C (second compound 10 µM, first compound 1 µM) 37.7% | viability, T/C (second compound 10 µM, first compound 3.16 µM) 39.8% | viability, T/C (second compound 10 µM, first compound 10 µM) 14.1%
3.3 µM: IC50 (second compound 0.316 µM)
3.51 µM: IC50 (second compound 0.1 µM)

Cn1cnc2c(F)c(Nc3ccc(Br)cc3Cl)c(C(=O)NOCCO)cc21 + COc1c(OCCCN2CCOCC2)ccc2c3n(c(=NC(=O)c4cnc(N)nc4)nc12)CCN3
inactive: viability, T/C (second compound 0.00316 µM, first compound 0.00949 µM) 60.5% | viability, T/C (second compound 0.00316 µM, first compound 0.03 µM) 55.1% | viability, T/C (second compound 0.00316 µM, first compound 0.0949 µM) 39.2% | viability, T/C (second compound 0.00316 µM, first compound 0.3 µM) 46.1% | viability, T/C (second compound 0.00316 µM, first compound 0.949 µM) 38% | viability, T/C (second compound 0.00316 µM, first compound 3 µM) 33.2% | viability, T/C (second compound 0.01 µM, first compound 0.00949 µM) 44.3% | viability, T/C (second compound 0.01 µM, first compound 0.03 µM) 43% | viability, T/C (second compound 0.01 µM, first compound 0.0949 µM) 39.1% | viability, T/C (second compound 0.01 µM, first compound 0.3 µM) 36.5% | viability, T/C (second compound 0.01 µM, first compound 0.949 µM) 28.6% | viability, T/C (second compound 0.01 µM, first compound 3 µM) 27.5% | viability, T/C (second compound 0.0316 µM, first compound 0.00949 µM) 36.6% | viability, T/C (second compound 0.0316 µM, first compound 0.03 µM) 33.4% | viability, T/C (second compound 0.0316 µM, first compound 0.0949 µM) 26.2% | viability, T/C (second compound 0.0316 µM, first compound 0.3 µM) 24.6% | viability, T/C (second compound 0.0316 µM, first compound 0.949 µM) 24.1% | viability, T/C (second compound 0.0316 µM, first compound 3 µM) 16.7% | viability, T/C (second compound 0.1 µM, first compound 0.00949 µM) 20.8% | viability, T/C (second compound 0.1 µM, first compound 0.03 µM) 20.8% | viability, T/C (second compound 0.1 µM, first compound 0.0949 µM) 15.6% | viability, T/C (second compound 0.1 µM, first compound 0.3 µM) 15.2% | viability, T/C (second compound 0.1 µM, first compound 0.949 µM) 14.7%
< 0.00949 µM: IC50 (second compound 0.01 µM) | IC50 (second compound 0.0316 µM) | IC50 (second compound 0.1 µM) | IC50 (second compound 0.316 µM) | IC50 (second compound 1 µM)
active: viability, T/C (second compound 0.1 µM, first compound 3 µM) 7.1% | viability, T/C (second compound 0.316 µM, first compound 0.00949 µM) 5.7% | viability, T/C (second compound 0.316 µM, first compound 0.03 µM) 5.13% | viability, T/C (second compound 0.316 µM, first compound 0.0949 µM) 2.49% | viability, T/C (second compound 0.316 µM, first compound 0.3 µM) 2.68% | viability, T/C (second compound 0.316 µM, first compound 0.949 µM) 1.51% | viability, T/C (second compound 0.316 µM, first compound 3 µM) 0.35% | viability, T/C (second compound 1 µM, first compound 0.00949 µM) 2.27% | viability, T/C (second compound 1 µM, first compound 0.03 µM) 1.05% | viability, T/C (second compound 1 µM, first compound 0.0949 µM) 0.66% | viability, T/C (second compound 1 µM, first compound 0.3 µM) 0.55% | viability, T/C (second compound 1 µM, first compound 0.949 µM) 0.39% | viability, T/C (second compound 1 µM, first compound 3 µM) 0.27%
0.0461 µM: IC50 (second compound 0.00316 µM)
